Patent US6060482A, “Triazaspirodecanone-methylchromans” (Bayer Aktiengesellschaft, priority 1991, dated 2000)
Counter-ions that a name gives are not always drawn.

How the values were obtained:
5-HT1 receptor = test: Affinity for the 5-HT1 receptor, receptor binding studies with 3H-serotonin on calf hippocampus membrane preparations
From the text: Affinity for the 5-HT1 receptor
In Table 1, the high affinity of the compounds according to the invention for 5-hydroxytryptamine receptors of the subtype 1 is represented by way of example. The values given are data which have been determined from receptor binding studies using calf hippocampus membrane preparations. The radioactively labelled ligand used for this was ^3 H-serotonin.

dopamine D2 receptor = molecular target: T1, dopamine D2 receptor (Rattus norvegicus, UniProt P61169); test: Dopamine D2 receptor test, binding of 3H-sulpiride on membranes from the striatum of the rat; settings: Ki calculated from IC50 of displacement curves
T1 construct: membranes from the striatum of the rat; from tissue; host or cells: rat striatum membranes
T1 sequence (P61169 whole entry): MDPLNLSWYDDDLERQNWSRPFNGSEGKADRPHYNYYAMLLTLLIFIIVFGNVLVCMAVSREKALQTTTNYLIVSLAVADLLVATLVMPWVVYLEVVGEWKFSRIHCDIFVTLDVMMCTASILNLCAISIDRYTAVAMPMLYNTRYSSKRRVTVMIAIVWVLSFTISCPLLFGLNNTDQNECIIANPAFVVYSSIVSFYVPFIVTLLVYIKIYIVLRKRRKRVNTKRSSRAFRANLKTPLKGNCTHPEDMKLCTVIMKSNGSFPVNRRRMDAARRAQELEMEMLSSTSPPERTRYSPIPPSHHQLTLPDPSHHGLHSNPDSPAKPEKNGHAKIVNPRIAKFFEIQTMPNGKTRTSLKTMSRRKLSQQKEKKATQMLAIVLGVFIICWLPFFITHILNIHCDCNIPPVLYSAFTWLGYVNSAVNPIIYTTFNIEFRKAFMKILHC
Experimental: Dopamine D2 receptor test
This test is carried out according to the following reference: Imafuku J. (1987), Brain Research 402; 331-338.
In this test, the binding of the selective D2 -receptor antagonist ^3 H-sulpiride on membranes from the striatum of the rat is measured. Compounds which bind to dopamine D2 -receptors inhibit the binding of ^3 H-sulpiride in a concentration-dependent manner. IC50 values are determined from the displacement curves and the inhibition constants Ki are calculated from these.

5-HT1A receptor = molecular target: T2, 5-HT1A receptor (Bos taurus, UniProt F6Q2H9); test: Affinity for the 5-HT1A receptor, binding of 3H-ipsapirone in calf hippocampus membranes
T2 construct: 5-HT1A receptors in calf hippocampus membranes; from tissue; host or cells: calf hippocampus membranes
T2 sequence (F6Q2H9 1-422): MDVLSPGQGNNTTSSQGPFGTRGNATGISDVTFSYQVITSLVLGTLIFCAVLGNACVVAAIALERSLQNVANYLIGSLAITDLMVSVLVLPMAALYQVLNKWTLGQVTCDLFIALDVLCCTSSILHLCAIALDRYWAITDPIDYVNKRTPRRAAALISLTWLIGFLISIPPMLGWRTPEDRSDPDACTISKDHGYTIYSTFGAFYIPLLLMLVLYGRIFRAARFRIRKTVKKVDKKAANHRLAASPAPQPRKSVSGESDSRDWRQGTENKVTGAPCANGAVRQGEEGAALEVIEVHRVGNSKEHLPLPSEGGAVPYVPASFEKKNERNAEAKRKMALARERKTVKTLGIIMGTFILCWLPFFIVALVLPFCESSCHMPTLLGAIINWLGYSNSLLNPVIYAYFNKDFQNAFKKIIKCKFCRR
Experimental: Affinity for the 5-HT1A receptor
[W. U. Dompert et al., Naunyn-Schmiedeberg's Arch. Pharmacol. (1985), 328, 467-470].
In this test, the binding of ^3 H-ipsapirone to 5-HT1A receptors in calf hippocampus membranes is measured.

| SMILES | Ki (5-HT1 receptor) | Ki (dopamine D2 receptor) | Ki (5-HT1A receptor) |
| --- | --- | --- | --- |
| O=C1NCN(c2ccccc2)C12CCN(CC1CCc3ccccc3O1)CC2 (centres unmarked) [Example 1, 8-(Chroman-2-yl-methyl)-1-phenyl-1,3,8-triazaspiro[4.5]-decan-4-one] | 2 nM | 0.2 nM | – |
| COc1cccc2c1OC(CN1CCC3(CC1)C(=O)NCN3c1ccccc1)CC2 (centres unmarked) [Example 2] | 1.5 nM | 0.3 nM | – |
| O=C1NCN(c2ccccc2)C12CCN(C[C@@H]1CCc3ccccc3O1)CC2 [Example 3] | – | 0.6 nM | – |
| O=C1NCN(c2ccccc2)C12CCN(C[C@H]1CCc3ccccc3O1)CC2 [Example 4] | 1 nM | – | – |
| O=C1NCN(c2ccccc2)C12CCN(CC1CCc3ccccc3O1)CC2 (centres unmarked) [Example 5, 8-(Chroman-2-yl-methyl)-1-phenyl-1,3,8-triazaspiro[4.5]-decan-4-one HCl salt] | – | – | 1 nM |
| COc1cccc2c1OC(CN1CCC3(CC1)C(=O)NCN3c1ccccc1)CC2 (centres unmarked) [Example 6] | – | – | 1 nM |
